Results: ChEMBL document CHEMBL5649169 (ChemMedChem, 2018)

What was measured:
[1] = molecular target: Keratin, type I cytoskeletal 18 (Homo sapiens) (UniProt P05783); further: assay method not described here
[2] = molecular target: DNA damage-binding protein 1 (Homo sapiens) (UniProt Q16531); further: assay method not described here
[3] = molecular target: Fructosamine-3-kinase (Homo sapiens) (UniProt Q9H479); further: assay method not described here
[4] = molecular target: Lamin-B2 (Homo sapiens) (UniProt Q03252); further: assay method not described here
[5] = species on record: Homo sapiens; further: assay method not described here
[6] = molecular target: Nucleosome assembly protein 1-like 1 (Homo sapiens) (UniProt P55209); further: assay method not described here
[7] = molecular target: Synaptic vesicle membrane protein VAT-1 homolog (Homo sapiens) (UniProt Q99536); further: assay method not described here
[8] = molecular target: Band 4.1-like protein 2 (Homo sapiens) (UniProt O43491); further: assay method not described here
[9] = molecular target: Actin-related protein 2/3 complex subunit 4 (Homo sapiens) (UniProt P59998); further: assay method not described here
[10] = molecular target: Pyruvate kinase PKM (Homo sapiens) (UniProt P14618); further: assay method not described here
[11] = molecular target: Cyclin-G-associated kinase (Homo sapiens) (UniProt O14976); further: assay method not described here
[12] = molecular target: 5-azacytidine-induced protein 2 (Homo sapiens) (UniProt Q9H6S1); further: assay method not described here
[13] = molecular target: Serine/threonine-protein kinase TAO3 (Homo sapiens) (UniProt Q9H2K8); further: assay method not described here
[14] = molecular target: NADH dehydrogenase [ubiquinone] iron-sulfur protein 7, mitochondrial (Homo sapiens) (UniProt O75251); further: assay method not described here
[15] = molecular target: Calnexin (Homo sapiens) (UniProt P27824); further: assay method not described here
[16] = molecular target: Calcium/calmodulin-dependent protein kinase type IV (Homo sapiens) (UniProt Q16566); further: assay method not described here
[17] = molecular target: Delta-1-pyrroline-5-carboxylate synthase (Homo sapiens) (UniProt P54886); further: assay method not described here
[18] = species on record: Homo sapiens; remark: listed apart in the source; further: assay method not described here
[19] = molecular target: Cyclin-dependent kinase 9 (Homo sapiens) (UniProt P50750); further: assay method not described here
[20] = molecular target: Non-selective voltage-gated ion channel VDAC1 (Homo sapiens) (UniProt P21796); further: assay method not described here
[21] = molecular target: Pre-mRNA-processing factor 40 homolog A (Homo sapiens) (UniProt O75400); further: assay method not described here
[22] = molecular target: Unconventional myosin-If (Homo sapiens) (UniProt O00160); further: assay method not described here
[23] = molecular target: TELO2-interacting protein 1 homolog (Homo sapiens) (UniProt O43156); further: assay method not described here
[24] = molecular target: Large ribosomal subunit protein eL24 (Homo sapiens) (UniProt P83731); further: assay method not described here
[25] = molecular target: Serine/threonine-protein kinase 16 (Homo sapiens) (UniProt O75716); further: assay method not described here
[26] = molecular target: Structural maintenance of chromosomes protein 2 (Homo sapiens) (UniProt O95347); further: assay method not described here
[27] = molecular target: Heterogeneous nuclear ribonucleoprotein H (Homo sapiens) (UniProt P31943); further: assay method not described here
[28] = molecular target: Proliferation-associated protein 2G4 (Homo sapiens) (UniProt Q9UQ80); further: assay method not described here
[29] = molecular target: Cyclin-A2 (Homo sapiens) (UniProt P20248); further: assay method not described here
[30] = molecular target: Putative RNA-binding protein Luc7-like 2 (Homo sapiens) (UniProt Q9Y383); further: assay method not described here
[31] = molecular target: Ephrin type-A receptor 8 (Homo sapiens, UniProt P29322); test: Inhibition of Nano Luc-fused full length C-terminal EPHA8 (unknown origin) expressed in HEK293T cells using NanoGlo as substrate incubated for 2 hrs in presence of tracer by NanoBRET assay; assay type: cell-based
[32] = molecular target: Ephrin type-A receptor 4 (Homo sapiens, UniProt P54764); further: assay method not described here
[33] = molecular target: Insulin receptor (Homo sapiens) (UniProt P06213); further: assay method not described here
[34] = molecular target: 26S proteasome non-ATPase regulatory subunit 8 (Homo sapiens) (UniProt P48556); further: assay method not described here
[35] = molecular target: Large ribosomal subunit protein uL4 (Homo sapiens) (UniProt P36578); further: assay method not described here
[36] = molecular target: Ribosomal protein S6 kinase alpha-6 (Homo sapiens) (UniProt Q9UK32); further: assay method not described here
[37] = molecular target: ADP/ATP translocase 2 (Homo sapiens) (UniProt P05141); further: assay method not described here
[38] = molecular target: Protein RRP5 homolog (Homo sapiens) (UniProt Q14690); further: assay method not described here
[39] = molecular target: Dual specificity mitogen-activated protein kinase kinase 6 (Homo sapiens) (UniProt P52564); further: assay method not described here
[40] = molecular target: Stathmin-2 (Homo sapiens) (UniProt Q93045); further: assay method not described here
[41] = molecular target: AP-3 complex subunit beta-1 (Homo sapiens) (UniProt O00203); further: assay method not described here
[42] = molecular target: Signal peptidase complex catalytic subunit SEC11A (Homo sapiens) (UniProt P67812); further: assay method not described here
[43] = molecular target: T-complex protein 1 subunit eta (Homo sapiens) (UniProt Q99832); further: assay method not described here
[44] = molecular target: Aldehyde dehydrogenase X, mitochondrial (Homo sapiens) (UniProt P30837); further: assay method not described here
[45] = molecular target: Large ribosomal subunit protein uL6 (Homo sapiens) (UniProt P32969); further: assay method not described here
[46] = molecular target: Pre-mRNA-splicing factor SPF27 (Homo sapiens) (UniProt O75934); further: assay method not described here

Sequence of ADP/ATP translocase 2 (Homo sapiens) (P05141 whole entry): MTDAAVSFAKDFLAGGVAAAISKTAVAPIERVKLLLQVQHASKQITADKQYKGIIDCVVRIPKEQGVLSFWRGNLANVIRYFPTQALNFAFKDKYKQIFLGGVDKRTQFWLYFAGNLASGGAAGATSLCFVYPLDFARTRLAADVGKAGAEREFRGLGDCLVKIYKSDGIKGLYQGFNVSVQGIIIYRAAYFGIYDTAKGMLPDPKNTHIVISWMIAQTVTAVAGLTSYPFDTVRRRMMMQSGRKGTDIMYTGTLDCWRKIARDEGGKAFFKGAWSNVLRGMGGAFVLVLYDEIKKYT
Sequence of Calcium/calmodulin-dependent protein kinase type IV (Homo sapiens) (Q16566 whole entry): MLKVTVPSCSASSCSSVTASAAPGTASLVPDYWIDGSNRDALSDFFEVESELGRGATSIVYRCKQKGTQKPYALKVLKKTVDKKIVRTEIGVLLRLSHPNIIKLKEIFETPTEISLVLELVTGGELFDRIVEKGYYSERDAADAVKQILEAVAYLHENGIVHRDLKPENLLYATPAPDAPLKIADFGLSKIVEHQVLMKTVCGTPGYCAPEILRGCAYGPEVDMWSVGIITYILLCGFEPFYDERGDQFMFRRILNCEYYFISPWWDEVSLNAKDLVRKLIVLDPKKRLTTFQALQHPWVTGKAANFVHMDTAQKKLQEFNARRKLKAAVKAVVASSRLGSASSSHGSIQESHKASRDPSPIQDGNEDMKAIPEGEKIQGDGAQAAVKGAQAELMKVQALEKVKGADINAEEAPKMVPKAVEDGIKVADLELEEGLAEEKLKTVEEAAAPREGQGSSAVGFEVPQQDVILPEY
Sequence of Serine/threonine-protein kinase TAO3 (Homo sapiens) (Q9H2K8 whole entry): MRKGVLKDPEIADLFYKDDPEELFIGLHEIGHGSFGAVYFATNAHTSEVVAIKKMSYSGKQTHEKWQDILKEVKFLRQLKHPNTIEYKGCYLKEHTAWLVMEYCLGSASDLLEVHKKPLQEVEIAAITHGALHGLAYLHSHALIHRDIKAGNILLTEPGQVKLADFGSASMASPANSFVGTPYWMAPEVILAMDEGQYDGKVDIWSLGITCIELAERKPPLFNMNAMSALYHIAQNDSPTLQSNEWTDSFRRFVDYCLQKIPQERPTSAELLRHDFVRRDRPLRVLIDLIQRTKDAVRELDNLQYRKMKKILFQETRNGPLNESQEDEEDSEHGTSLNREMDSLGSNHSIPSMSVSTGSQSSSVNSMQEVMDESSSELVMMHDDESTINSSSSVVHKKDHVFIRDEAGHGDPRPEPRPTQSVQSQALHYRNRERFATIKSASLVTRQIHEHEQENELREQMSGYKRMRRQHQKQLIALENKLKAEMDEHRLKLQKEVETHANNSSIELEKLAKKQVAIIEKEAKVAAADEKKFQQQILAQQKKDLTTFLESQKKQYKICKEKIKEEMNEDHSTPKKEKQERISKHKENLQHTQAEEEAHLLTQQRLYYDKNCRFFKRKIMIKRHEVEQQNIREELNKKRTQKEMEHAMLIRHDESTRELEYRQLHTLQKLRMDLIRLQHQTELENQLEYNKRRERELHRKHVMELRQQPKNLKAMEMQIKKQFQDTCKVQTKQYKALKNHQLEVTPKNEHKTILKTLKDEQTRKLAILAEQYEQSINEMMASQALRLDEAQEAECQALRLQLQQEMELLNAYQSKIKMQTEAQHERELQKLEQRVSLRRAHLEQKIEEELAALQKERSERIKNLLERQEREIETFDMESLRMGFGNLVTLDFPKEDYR
Sequence of Synaptic vesicle membrane protein VAT-1 homolog (Homo sapiens) (Q99536 whole entry): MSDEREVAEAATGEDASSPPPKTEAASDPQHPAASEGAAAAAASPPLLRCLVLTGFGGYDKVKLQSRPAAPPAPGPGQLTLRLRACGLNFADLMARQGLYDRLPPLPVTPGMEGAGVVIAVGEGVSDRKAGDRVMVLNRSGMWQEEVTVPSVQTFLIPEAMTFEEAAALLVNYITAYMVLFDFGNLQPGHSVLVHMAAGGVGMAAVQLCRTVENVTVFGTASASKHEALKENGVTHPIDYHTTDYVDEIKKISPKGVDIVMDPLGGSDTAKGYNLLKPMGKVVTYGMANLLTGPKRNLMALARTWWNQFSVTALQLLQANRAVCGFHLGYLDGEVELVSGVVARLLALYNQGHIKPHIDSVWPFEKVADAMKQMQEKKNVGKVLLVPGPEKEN
Sequence of Insulin receptor (Homo sapiens) (P06213 28-758 limits assumed): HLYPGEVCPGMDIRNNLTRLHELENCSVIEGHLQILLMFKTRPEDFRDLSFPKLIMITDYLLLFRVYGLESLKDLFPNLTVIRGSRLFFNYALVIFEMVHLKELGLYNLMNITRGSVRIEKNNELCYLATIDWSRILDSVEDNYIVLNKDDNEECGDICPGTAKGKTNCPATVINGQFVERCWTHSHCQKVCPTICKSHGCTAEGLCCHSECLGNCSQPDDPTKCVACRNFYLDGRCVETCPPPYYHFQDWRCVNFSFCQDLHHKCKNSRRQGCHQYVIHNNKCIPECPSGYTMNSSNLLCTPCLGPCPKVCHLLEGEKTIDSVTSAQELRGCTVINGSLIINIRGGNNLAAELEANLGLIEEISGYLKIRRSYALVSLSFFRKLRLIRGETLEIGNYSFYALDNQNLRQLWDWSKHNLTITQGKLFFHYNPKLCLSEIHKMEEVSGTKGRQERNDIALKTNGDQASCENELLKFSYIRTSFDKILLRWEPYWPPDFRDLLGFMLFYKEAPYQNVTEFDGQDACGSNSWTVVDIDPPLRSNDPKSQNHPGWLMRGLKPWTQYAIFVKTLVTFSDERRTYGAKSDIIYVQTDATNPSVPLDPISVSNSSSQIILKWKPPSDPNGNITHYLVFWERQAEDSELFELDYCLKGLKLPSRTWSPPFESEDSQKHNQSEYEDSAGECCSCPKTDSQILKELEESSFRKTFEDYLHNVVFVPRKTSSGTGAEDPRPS
Sequence of Insulin receptor (Homo sapiens) (P06213 763-1382 limits assumed): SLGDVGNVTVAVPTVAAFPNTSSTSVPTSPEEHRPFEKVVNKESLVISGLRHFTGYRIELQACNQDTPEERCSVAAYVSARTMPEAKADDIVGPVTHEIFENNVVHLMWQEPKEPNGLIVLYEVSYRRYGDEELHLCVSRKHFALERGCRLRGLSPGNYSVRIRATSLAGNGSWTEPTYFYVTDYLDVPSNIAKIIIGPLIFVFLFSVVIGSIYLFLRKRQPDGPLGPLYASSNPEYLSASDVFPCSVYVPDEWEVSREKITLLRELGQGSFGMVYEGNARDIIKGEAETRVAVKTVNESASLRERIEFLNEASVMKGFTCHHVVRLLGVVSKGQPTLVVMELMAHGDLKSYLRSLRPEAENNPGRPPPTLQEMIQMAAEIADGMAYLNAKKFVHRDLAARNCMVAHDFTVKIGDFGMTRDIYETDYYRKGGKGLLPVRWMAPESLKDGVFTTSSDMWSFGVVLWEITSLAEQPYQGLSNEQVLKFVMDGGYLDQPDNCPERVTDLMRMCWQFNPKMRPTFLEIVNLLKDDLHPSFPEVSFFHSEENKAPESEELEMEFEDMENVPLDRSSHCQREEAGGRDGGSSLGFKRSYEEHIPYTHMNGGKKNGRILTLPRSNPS
Sequence of Signal peptidase complex catalytic subunit SEC11A (Homo sapiens) (P67812 whole entry, one chain of several): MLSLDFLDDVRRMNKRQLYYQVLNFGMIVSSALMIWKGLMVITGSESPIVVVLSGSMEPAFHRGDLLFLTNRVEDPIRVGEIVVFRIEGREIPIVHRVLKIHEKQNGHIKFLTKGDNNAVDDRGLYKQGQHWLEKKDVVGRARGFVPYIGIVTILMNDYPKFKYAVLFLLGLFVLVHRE
Sequence of Pyruvate kinase PKM (Homo sapiens) (P14618 2-531 limits assumed): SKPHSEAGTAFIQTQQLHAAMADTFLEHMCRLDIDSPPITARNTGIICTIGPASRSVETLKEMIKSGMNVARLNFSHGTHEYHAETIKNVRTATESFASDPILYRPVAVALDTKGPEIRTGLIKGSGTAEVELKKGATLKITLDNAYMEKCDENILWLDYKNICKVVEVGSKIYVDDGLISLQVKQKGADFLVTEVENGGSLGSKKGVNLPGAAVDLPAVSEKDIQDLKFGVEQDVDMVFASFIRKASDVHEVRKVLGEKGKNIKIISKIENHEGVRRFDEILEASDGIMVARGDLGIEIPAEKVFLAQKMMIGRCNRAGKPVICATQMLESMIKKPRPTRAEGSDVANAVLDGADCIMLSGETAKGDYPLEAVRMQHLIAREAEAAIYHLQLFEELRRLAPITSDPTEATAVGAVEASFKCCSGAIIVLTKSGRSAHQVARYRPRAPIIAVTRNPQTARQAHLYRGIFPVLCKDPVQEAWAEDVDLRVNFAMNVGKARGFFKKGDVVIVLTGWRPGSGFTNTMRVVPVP
Sequence of T-complex protein 1 subunit eta (Homo sapiens) (Q99832 whole entry, one chain of several): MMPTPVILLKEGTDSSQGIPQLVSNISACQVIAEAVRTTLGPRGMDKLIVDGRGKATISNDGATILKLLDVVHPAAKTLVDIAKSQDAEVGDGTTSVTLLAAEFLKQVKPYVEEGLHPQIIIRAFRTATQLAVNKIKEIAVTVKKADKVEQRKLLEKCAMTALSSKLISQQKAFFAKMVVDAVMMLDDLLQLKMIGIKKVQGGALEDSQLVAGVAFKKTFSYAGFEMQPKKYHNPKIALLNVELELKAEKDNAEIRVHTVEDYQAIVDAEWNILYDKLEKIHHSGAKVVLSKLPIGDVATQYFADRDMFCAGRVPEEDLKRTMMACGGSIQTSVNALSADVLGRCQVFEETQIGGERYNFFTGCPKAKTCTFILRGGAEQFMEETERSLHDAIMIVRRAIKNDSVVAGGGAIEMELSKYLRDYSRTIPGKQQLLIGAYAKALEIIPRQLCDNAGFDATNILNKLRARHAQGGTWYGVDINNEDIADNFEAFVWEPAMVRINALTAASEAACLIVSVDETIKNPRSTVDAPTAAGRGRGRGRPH
Sequence of Non-selective voltage-gated ion channel VDAC1 (Homo sapiens) (P21796 whole entry): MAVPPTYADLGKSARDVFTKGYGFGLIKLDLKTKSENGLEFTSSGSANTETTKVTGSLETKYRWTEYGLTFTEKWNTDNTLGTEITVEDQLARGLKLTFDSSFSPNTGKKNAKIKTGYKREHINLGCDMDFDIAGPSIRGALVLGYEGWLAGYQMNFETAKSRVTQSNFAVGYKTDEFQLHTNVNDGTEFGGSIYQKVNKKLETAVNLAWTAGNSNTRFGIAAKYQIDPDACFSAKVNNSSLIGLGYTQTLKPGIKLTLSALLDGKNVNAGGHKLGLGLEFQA

Cc1ccc(C(=O)Nc2cccc(C(F)(F)F)c2)cc1Nc1nc(-c2cccnc2)nc2c1cnn2C
ED50 [1]: 7.35 µM | ED50 [2]: 0.122 µM | ED50 [3]: 7.31 µM | ED50 [4]: 257 µM | ED50 [5]: 17.4 µM | ED50 [6]: 3.1 µM | ED50 [7]: 7.96 µM | ED50 [8]: 0.00541 µM | ED50 [9]: 18.9 µM | ED50 [10]: 5.83 µM | ED50 [11]: 4.02 µM | ED50 [12]: 0.0383 µM | ED50 [13]: 5.85 µM | ED50 [14]: 0.00309 µM | ED50 [15]: 5.64 µM | ED50 [16]: 2.34 µM | ED50 [17]: 224 µM | ED50 [18]: 0.018 µM | ED50 [19]: 4.6 µM | ED50 [20]: 0.00899 µM | ED50 [21]: 0.0134 µM | ED50 [22]: 4.43 µM | ED50 [23]: 4370 µM | ED50 [24]: 10.3 µM | ED50 [25]: 0.13 µM | ED50 [26]: 5.62 µM | ED50 [27]: 5.86 µM | ED50 [28]: 162 µM | ED50 [29]: 4.89 µM | ED50 [30]: 1.77 µM | IC50 [31]: 0.0012 µM | ED50 [32]: 1.13 µM | ED50 [33]: 0.163 µM | ED50 [34]: 8.9 µM | ED50 [35]: 4.73 µM | ED50 [36]: 0.735 µM | ED50 [37]: 2.54 µM | ED50 [38]: 0.0339 µM | ED50 [39]: 0.0368 µM | ED50 [40]: 0.00439 µM | ED50 [41]: 0.558 µM | ED50 [42]: 430 µM | ED50 [43]: 50.3 µM | ED50 [44]: 0.00943 µM | ED50 [45]: 1.27 µM | ED50 [46]: 0.00189 µM

Cc1ccc(C(=O)Nc2cccc(C(F)(F)F)c2)cc1Nc1nc(-c2cccnc2)nc2nn(C)cc12
ED50 [1]: 0.581 µM | ED50 [2]: 0.139 µM | ED50 [3]: 0.291 µM | ED50 [4]: 1.63 µM | ED50 [5]: 0.0301 µM | ED50 [6]: 147 µM | ED50 [7]: 145 µM | ED50 [8]: 0.338 µM | ED50 [9]: 15.8 µM | ED50 [10]: 0.174 µM | ED50 [11]: 2.32 µM | ED50 [12]: 6.47 µM | ED50 [13]: 0.0641 µM | ED50 [14]: 1.81 µM | ED50 [15]: 9.63 µM | ED50 [16]: 2.78 µM | ED50 [17]: 41.7 µM | ED50 [18]: 0.0558 µM | ED50 [19]: 0.135 µM | ED50 [20]: 0.0559 µM | ED50 [21]: 0.0135 µM | ED50 [22]: 0.105 µM | ED50 [23]: 0.00118 µM | ED50 [24]: 27 µM | ED50 [25]: 0.0232 µM | ED50 [26]: 0.0113 µM | ED50 [27]: 13.2 µM | ED50 [28]: 0.365 µM | ED50 [29]: 0.586 µM | ED50 [30]: 4.27 µM | IC50 [31]: 0.21 µM | ED50 [32]: 5.1 µM | ED50 [33]: 0.00863 µM | ED50 [34]: 0.0341 µM | ED50 [35]: 24.9 µM | ED50 [36]: 20400 µM | ED50 [37]: 0.186 µM | ED50 [38]: 0.0717 µM | ED50 [39]: 1.71 µM | ED50 [40]: 10.5 µM | ED50 [41]: 0.049 µM | ED50 [42]: 6.74 µM | ED50 [43]: 0.117 µM | ED50 [44]: 0.0072 µM | ED50 [45]: 5.23 µM | ED50 [46]: 0.954 µM
